# Target: human SGLT1 (Homo sapiens (Human), UniProt P13866)
# Experiment: SGLT1 inhibitory activity: 14C-AMG uptake into CHO-K1 cell line stably expressing human SGLT1
# Format: cell-based
# Details: 14C-AMG uptake, CHO-K1 cells expressing human SGLT1
# Summary of the method: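 Human SGLT1 was stably expressed in CHO-K1 cells. Cells were first held 20 min in sodium-free buffer, then exposed to compound in Na(+)/BSA buffer with tracer and AMG (2 mM in the added solution).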
# Chain of human SGLT1 (P13866 whole entry): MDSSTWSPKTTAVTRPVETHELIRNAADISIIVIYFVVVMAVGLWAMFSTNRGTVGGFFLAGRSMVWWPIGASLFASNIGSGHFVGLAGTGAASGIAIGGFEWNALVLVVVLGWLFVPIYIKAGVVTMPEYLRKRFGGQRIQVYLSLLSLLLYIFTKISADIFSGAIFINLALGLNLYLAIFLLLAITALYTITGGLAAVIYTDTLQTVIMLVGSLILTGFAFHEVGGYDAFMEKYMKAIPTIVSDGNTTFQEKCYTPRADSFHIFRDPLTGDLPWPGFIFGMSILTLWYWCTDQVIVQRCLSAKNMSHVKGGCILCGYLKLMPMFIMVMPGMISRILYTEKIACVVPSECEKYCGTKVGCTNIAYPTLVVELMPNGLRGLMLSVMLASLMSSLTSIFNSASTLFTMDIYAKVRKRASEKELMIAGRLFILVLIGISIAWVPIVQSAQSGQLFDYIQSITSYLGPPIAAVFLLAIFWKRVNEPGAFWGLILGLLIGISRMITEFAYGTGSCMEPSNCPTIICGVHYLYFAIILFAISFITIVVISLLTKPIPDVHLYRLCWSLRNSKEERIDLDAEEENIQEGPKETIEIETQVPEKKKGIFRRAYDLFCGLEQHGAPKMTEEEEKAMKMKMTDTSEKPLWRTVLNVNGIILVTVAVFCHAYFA
row,IC50 [nM],SMILES
1,7.7,"O=C1CCC(C(=O)Nc2cc(-c3cccc(OC(F)(F)F)c3)n(-c3ccccc3)n2)CN1 (single isomer, unassigned) [Example 150]"
2,13,CCC(F)(F)c1cccc(-c2cc(NC(=O)[C@@H]3CNC(=O)C3)nn2-c2ccccc2)c1 [Example 73]
3,33,"CCCc1cccc(-c2cc(NC(=O)C3COC(=O)C3)nn2-c2ccccc2)c1 (racemic) [Example 7, 5-oxotetrahydrofuran-3-carboxylic acid[1-phenyl-5-(3-propylphenyl)-1H-pyrazol-3-yl]amide]"
4,24,O=C1C[C@H](C(=O)Nc2cc(-c3cccc(OC(F)(F)F)c3)n(-c3ccccc3)n2)CN1 [Example 29]
5,0.9,CC(C)(C)c1cccc(-c2cc(NC(=O)[C@H]3CNC(=O)C3)nn2-c2ccccc2Cl)c1 [Example 132]
6,25,O=C1C[C@@H](C(=O)Nc2cc(-c3cccc(C4CC4)c3)n(-c3ccccc3)n2)CN1 [Example 92]
7,13,O=C1C[C@@H](C(=O)Nc2cc(-c3cccc(OC(F)(F)F)c3)n(-c3cccc(F)c3)n2)CN1 [Example 157]
8,18,CCCc1cccc(-c2cc(NC(=O)[C@@H]3CNC(=O)C3)nn2C2CCCCCC2)c1 [Example 69]
9,11,CCCc1cccc(-c2cc(NC(=O)[C@H]3CNC(=O)C3)nn2-c2ccc(OC)cc2)c1 [Example 121]
10,8.3,Cc1cc(F)ccc1-n1nc(NC(=O)[C@H]2CNC(=O)C2)cc1-c1cccc(OC(F)(F)F)c1 [Example 195]
11,1.9,CCCc1cccc(-c2cc(NC(=O)[C@H]3CNC(=O)C3)nn2-c2ccccc2Cl)c1 [Example 100]
12,14,C[C@H]1C(=O)NC[C@@H]1C(=O)Nc1cc(-c2cccc(C(C)(C)C)c2)n(C2CCOCC2)n1 [Example 178]
13,28,CC(C)(C)c1cccc(-c2cc(NC(=O)[C@H]3CNC(=O)C3)nn2CCC2CCCCC2)c1 [Example 129]
14,23,O=C1C[C@@H](C(=O)Nc2cc(-c3cccc(C(F)(F)F)c3)n(-c3ccccc3)n2)CN1 [Example 27]
15,11,CCCc1cccc(-c2cc(NC(=O)[C@H]3CNC(=O)C3)nn2-c2ccccc2OC)c1 [Example 133]
16,3.1,CCCc1cc(F)cc(-c2cc(NC(=O)[C@H]3CNC(=O)C3)nn2-c2ccccc2)c1 [Example 74]
17,3.3,CC(C)(C)c1cccc(-c2cc(NC(=O)[C@H]3CNC(=O)C3)nn2-c2ccc(Cl)cc2)c1 [Example 153]
18,2.1,Cc1ccccc1-n1nc(NC(=O)[C@H]2CNC(=O)[C@@H]2C)cc1-c1cccc(OCC(F)(F)F)c1 [Example 227]
19,85,O=C1C[C@@H](C(=O)Nc2cc(-c3cccc(OC(F)(F)F)c3)n(CCc3ccccc3)n2)CN1 [Example 110]
20,66,CCCc1cccc(-c2cc(NC(=O)C3CNC(=O)C3)nn2C(C)C)c1 (racemic) [Example 17]
21,17,CCCc1cccc(-c2cc(NC(=O)C3CNC(=O)C3CC)nn2-c2ccccc2)c1 (racemic) [Example 60]
22,17,O=C1C[C@@H](C(=O)Nc2cc(-c3cccc(OCC(F)(F)F)c3)n(-c3ccc(Cl)cc3)n2)CN1 [Example 159]
23,3.7,CCCCc1cccc(-c2cc(NC(=O)[C@@H]3CNC(=O)C3)nn2-c2ccccc2)c1 [Example 46]
24,200,"O=C1CCC(C(=O)Nc2cc(-c3cccc(OC(F)(F)F)c3)n(C3CCOCC3)n2)CN1 (single isomer, unassigned) [Example 189]"
25,2.2,CCCc1cccc(-c2cc(NC(=O)[C@H]3CNC(=O)C3)nn2-c2ccccc2C)c1 [Example 102]
26,19,CCC(F)(F)c1cccc(-c2cc(NC(=O)[C@H]3CNC(=O)[C@@H]3C)nn2C2CCOCC2)c1 [Example 179]
27,17,O=C1C[C@@H](C(=O)Nc2cc(-c3cccc(OC(F)(F)F)c3)n(CCC3CCCCC3)n2)CN1 [Example 128]
28,17,O=C1C[C@@H](C(=O)Nc2cc(-c3cccc(OCC(F)(F)F)c3)n(-c3ccc(F)cc3)n2)CN1 [Example 211]
29,11,CCc1cccc(-c2cc(NC(=O)[C@H]3CNC(=O)C3)nn2-c2ccccc2)c1 [Example 43]

# Same assay, conditions: 14C-AMG uptake, CHO-K1 cells stably expressing human SGLT1
row,IC50 [nM],SMILES
1,21,COc1cccc(-n2nc(NC(=O)[C@@H]3CNC(=O)C3)cc2-c2cccc(OC(F)(F)F)c2)c1F [Example 476]
2,11,COCCOc1ccc(F)c(-n2nc(NC(=O)[C@@H]3CNC(=O)C3)cc2-c2cccc(OC(F)(F)F)c2)c1 [Example 518]
3,15,CCCc1cccc(-c2cc(NC(=O)[C@@H]3CNC(=O)C3)nn2-c2cccc(C(C)(C)C)c2)c1 [Example 394]
4,5.7,CC(C)CSc1cccc(-c2cc(NC(=O)[C@@H]3CNC(=O)C3)nn2-c2ccccc2)c1 [Example 546]
5,35,O=C1NC[C@H](C(=O)Nc2cc(-c3cc(F)cc(COCC(F)(F)F)c3)n(-c3ccc(Cl)cc3)n2)N1 [Example 596]
6,76,CCCc1cccc(-c2cc(NC(=O)[C@@H]3CNC(=O)O3)nn2-c2ccccc2)c1 [Example 257]
7,32,CC[C@H](C)OCc1cccc(-c2cc(NC(=O)[C@@H]3CNC(=O)C3)nn2-c2ccccc2)c1 [Example 351]
8,4.1,CCOc1cccc(-n2nc(NC(=O)[C@@H]3CNC(=O)C3)cc2-c2cccc(CO[C@H](C)C(F)(F)F)c2)c1F [Example 485]
9,7.6,CCCc1cccc(-c2cc(NC(=O)[C@@H]3CNC(=O)C3)nn2-c2cccc(OCCCSC)c2)c1 [Example 490]
10,7.2,CCCc1cccc(-c2cc(NC(=O)[C@@H]3CNC(=O)C3)nn2-c2cccc(OC)c2)c1 [Example 343]
11,60,C[C@@H](OCc1cc(Cl)cc(-c2cc(NC(=O)[C@H]3CNC(=O)N3)nn2-c2ccccc2)c1)C(F)(F)F [Example 597]
12,2.3,CC(C)Oc1cccc(-n2nc(NC(=O)[C@@H]3CNC(=O)C3)cc2-c2cccc(COCC(F)(F)F)c2)c1 [Example 449]
13,27,CC(C)(OCc1cccc(-c2cc(NC(=O)[C@H]3CNC(=O)N3)nn2-c2ccc(Cl)cc2)c1)C(F)(F)F [Example 599]
14,8.7,CCOc1cccc(-n2nc(NC(=O)[C@@H]3CNC(=O)C3)cc2-c2cccc(COCC(F)(F)F)c2)c1F [Example 481]
15,15,CCCOC(C)(C)c1cccc(-c2cc(NC(=O)[C@@H]3CNC(=O)C3)nn2-c2ccccc2)c1 [Example 326]
16,12,CC(C)(OCc1cc(Cl)cc(-c2cc(NC(=O)[C@@H]3CNC(=O)C3)nn2-c2ccc(F)cc2)c1)C(F)(F)F [Example 581]
17,17,CCCc1cccc(-c2cc(NC(=O)[C@@H]3CNC(=O)C3)nn2-c2ccc(C(F)(F)F)cc2)c1 [Example 402]
18,25,CC[C@@H](C)OCc1cccc(-c2cc(NC(=O)[C@@H]3CNC(=O)C3)nn2-c2ccccc2)c1 [Example 350]
19,2.2,CCCc1cccc(-c2cc(NC(=O)[C@@H]3CNC(=O)C3)nn2-c2cc(C)ccc2C)c1 [Example 324]
20,6.3,C[C@@H](OCc1cccc(-c2cc(NC(=O)[C@@H]3CNC(=O)C3)nn2-c2ccccc2)c1)C(F)(F)F [Example 334]
21,5.35,CCCc1cccc(-c2cc(NC(=O)[C@@H]3CNC(=O)C3)nn2-c2cccc(OC(=O)OC(C)(C)C)c2)c1 [Example 388]
22,45,C[C@@H]1C(=O)NC[C@H]1C(=O)Nc1cc(-c2cccc(CO[C@H](C)C(F)(F)F)c2)n(-c2ccccc2)n1 [Example 564]
23,43,C[C@@H](OCc1cccc(-c2cc(NC(=O)[C@@H]3CCC(=O)N3)nn2-c2ccccc2)c1)C(F)(F)F [Example 547]
24,11,COCc1cccc(-n2nc(NC(=O)[C@@H]3CNC(=O)C3)cc2-c2cccc(COCC(F)(F)F)c2)c1 [Example 489]
25,1.7,COCCOc1ccc(F)c(-n2nc(NC(=O)[C@@H]3CNC(=O)C3)cc2-c2cccc(CO[C@H](C)C(F)(F)F)c2)c1 [Example 465]
26,14,CC(C)Oc1cc(-n2nc(NC(=O)[C@@H]3CNC(=O)C3)cc2-c2cccc(OC(F)(F)F)c2)ccc1F [Example 422]
27,13,O=C1C[C@H](C(=O)Nc2cc(-c3cc(F)cc(COC(C(F)(F)F)C(F)(F)F)c3)n(-c3ccc(F)cc3)n2)CN1 [Example 573]
28,3.35,CCCc1cccc(-c2cc(NC(=O)[C@@H]3CNC(=O)C3)nn2-c2cccc(OC(C)C)c2)c1 [Example 344]
29,2.15,COc1ccc(F)c(-n2nc(NC(=O)[C@@H]3CNC(=O)C3)cc2-c2cccc(CO[C@H](C)C(F)(F)F)c2)c1 [Example 523]
30,7.6,CC(C)(OCc1cc(F)cc(-c2cc(NC(=O)[C@@H]3CNC(=O)C3)nn2-c2ccc(Cl)cc2)c1)C(F)(F)F [Example 580]

# Same assay, conditions: CHO-K1, at 0.00265 uM
row,inhibition at 0.00265 µM [%],SMILES
1,57,C[C@H]1C(=O)NC[C@@H]1C(=O)Nc1cc(-c2cccc(CO[C@H](C)C(F)(F)F)c2)n(-c2ccccc2)n1 [Example 563]

# Same assay, conditions: CHO-K1, at 0.03 uM
row,inhibition at 0.03 µM [%],SMILES
1,7,O=C1NCC(C(=O)Nc2cc(-c3cccc(OC(F)(F)F)c3)n(-c3ccccc3)n2)CN1 [Example 252]

# Same assay, conditions: CHO-K1, at 0.1 uM
row,inhibition at 0.1 µM [%],SMILES
1,50,O=C1C[C@H](C(=O)Nc2cc(-c3cccc(OC(F)(F)F)c3)n(-c3ccc(Cl)cc3)n2)CN1 [Example 507]
2,21,C[C@@H](OCc1cc(-c2cc(NC(=O)[C@@H]3CNC(=O)C3)nn2-c2ccccc2)cc(C(F)(F)F)c1)C(F)(F)F [Example 544]
3,3,O=C1CC[C@H](C(=O)Nc2cc(-c3cccc(COCC(F)(F)F)c3)n(-c3ccccc3)n2)N1 [Example 548]
4,14,CC(C)N(C)C(=O)c1cccc(-c2cc(NC(=O)[C@@H]3CNC(=O)C3)nn2-c2ccccc2)c1 [Example 432]

# Same assay, conditions: CHO-K1, at 0.3 uM
row,inhibition at 0.3 µM [%],SMILES
1,27,CC(C)S(=O)(=O)c1cccc(-c2cc(NC(=O)[C@@H]3CNC(=O)C3)nn2-c2ccccc2)c1 [Example 568]

# Same assay, conditions: CHO-K1, at 1 uM
row,inhibition at 1 µM [%],SMILES
1,9,CCCc1cc(-c2cc(NC(=O)[C@H]3CNC(=O)C3)nn2-c2ccccc2)ccc1OCC(=O)O [Example 122]

# Source: patent publication US8846746B2, “Pyrazole compound and pharmaceutical use thereof” (Japan Tobacco Inc., priority 2011, dated 2014)
